Legend:
[1] = test system: MDA-MB-231; assay: cells; conditions: Homo sapiens, MDA-MB-231, 72 h
Description: Cytotoxicity against human MDA-MB-231 cells assessed as reduction in cell viability after 72 hrs by MTT assay

[2] = test system: HCT-116; assay: Cytotoxicity against human HCT116 cells assessed as reduction in cell viability after 72 hrs by MTT assay; assay type: functional, cell-based; conditions: HCT-116, 72 h
[3] = test system: PC-3; assay: Cytotoxicity against human PC3 cells assessed as reduction in cell viability after 72 hrs by MTT assay; assay type: functional, cell-based; conditions: PC-3, 72 h
[4] = test system: A549; assay: Cytotoxicity against human A549 cells assessed as reduction in cell viability after 72 hrs by MTT assay; assay type: functional, cell-based; conditions: A549, 72 h
[5] = test system: MCF7; assay: cells; conditions: Homo sapiens, MCF7, 72 h
Description: Cytotoxicity against human MCF7 cells assessed as reduction in cell viability after 72 hrs by MTT assay

IC50 [1] [µM] | IC50 [5] [µM] | Structure (SMILES) | IC50 [2] [µM] | IC50 [3] [µM] | IC50 [4] [µM]
3.5 | 4.09 | CC(=O)c1c(C)c2cnc(Nc3ccc(N4CCNCC4)cn3)nc2n(C2CCCC2)c1=O [PALBOCICLIB] | 8.9 | 2.2 | 1.32
> 50 | > 50 | Cc1nnc2c(=O)n(C3CCCC3)c3nc(Nc4ccc(N5CCC(C)CC5)cc4)ncc3n12 | 11.2 | > 50 | > 50
> 50 | 7.28 | CN(C)c1ccc(Nc2ncc3c(n2)n(C2CCCC2)c(=O)c2nncn23)cc1 | 19.1 | > 50 | 3.89
> 50 | > 50 | O=c1c2nnnn2c2cnc(Nc3ccc(N4CCN(C5CCCC5)CC4)cc3)nc2n1C1CCCC1 | 2.12 | > 50 | > 50
> 50 | > 50 | Cc1nnc2c(=O)n(C3CCCC3)c3nc(Nc4ccc(N(C)C)cc4)ncc3n12 | 29.1 | > 50 | 8.86
> 50 | 2.31 | O=c1c2nnnn2c2cnc(Nc3ccc(N4CCN(CCO)CC4)cc3)nc2n1C1CCCC1 | > 50 | > 50 | 3.85
> 50 | > 50 | CCN1CCN(c2ccc(N(C(C)=O)c3ncc4c(n3)n(C3CCCC3)c(=O)c3nnc(C)n34)cc2)CC1 | 40.3 | > 50 | 20.2
> 50 | > 50 | Cc1nnc2c(=O)n(C3CCCC3)c3nc(Nc4ccc(N5CCCC5)cc4)ncc3n12 | > 50 | > 50 | > 50
6.4 | > 50 | O=c1c2nncn2c2cnc(Nc3ccc(N4CCSCC4)cc3)nc2n1C1CCCC1 | 12 | > 50 | 2.12
37.4 | > 50 | O=c1c2nnnn2c2cnc(Nc3ccc(N4CCSCC4)cc3)nc2n1C1CCCC1 | > 50 | > 50 | > 50
48.5 | > 50 | O=c1c2nnnn2c2cnc(Nc3ccc(N4CCOCC4)cc3)nc2n1C1CCCC1 | 43.2 | > 50 | 4.81
5.85 | 3.21 | Cc1nnc2c(=O)n(C3CCCC3)c3nc(Nc4ccc(N5CCC(N6CCN(C)CC6)CC5)cc4)ncc3n12 | 12.1 | > 50 | 2.38
6.26 | > 50 | Cc1nnc2c(=O)n(C3CCCC3)c3nc(Nc4ccc(N5CCCCC5)cc4)ncc3n12 | 19.1 | > 50 | 5.24
53.5 | > 50 | O=c1c2nnnn2c2cnc(Nc3ccc(N4CCC(O)CC4)cc3)nc2n1C1CCCC1 | 36.3 | > 50 | > 50
> 50 | > 50 | Cc1nnc2c(=O)n(C3CCCC3)c3nc(Nc4ccc(N5CCOCC5)cc4)ncc3n12 | 8.91 | > 50 | 4.29
> 50 | > 50 | O=c1c2nncn2c2cnc(Nc3ccc(N4CCCC4)cc3)nc2n1C1CCCC1 | 49.3 | 11.3 | 5.63
> 50 | > 50 | Cc1nnc2c(=O)n(C3CCCC3)c3nc(Nc4ccc(N5CCC(O)CC5)cc4)ncc3n12 | 18.1 | > 50 | 21.7

IC50 [1] [µM] | IC50 [5] [µM] | Structure (SMILES) | IC50 [2] [µM] | IC50 [3] [µM] | IC50 [4] [µM]
> 50 | > 50 | CN1CCN(C2CCN(c3ccc(Nc4ncc5c(n4)n(C4CCCC4)c(=O)c4nncn45)cc3)CC2)CC1 | 9.3 | 13.4 | 2.95
> 50 | > 50 | Cc1nnc2c(=O)n(C3CCCC3)c3nc(Nc4ccc(N5CCSCC5)cc4)ncc3n12 | 5.82 | > 50 | 7.19
4.9 | > 50 | CC1CCN(c2ccc(Nc3ncc4c(n3)n(C3CCCC3)c(=O)c3nncn34)cc2)CC1 | 12 | > 50 | 3.31
3.5 | > 50 | O=c1c2nncn2c2cnc(Nc3ccc(N4CCOCC4)cc3)nc2n1C1CCCC1 | 8.91 | > 50 | 38.9
> 50 | > 50 | Cc1nnc2c(=O)n(C3CCCC3)c3nc(Nc4ccc(NC5CCCC5)cc4)ncc3n12 | > 50 | > 50 | 9.29
> 50 | > 50 | CC1CCN(c2ccc(Nc3ncc4c(n3)n(C3CCCC3)c(=O)c3nnnn34)cc2)CC1 | > 50 | > 50 | 4.92
5.81 | > 50 | CN1CCN(C2CCN(c3ccc(Nc4ncc5c(n4)n(C4CCCC4)c(=O)c4nnnn45)cc3)CC2)CC1 | 7.62 | > 50 | 1.28
> 50 | > 50 | O=c1c2nncn2c2cnc(Nc3ccc(NC4CCCC4)cc3)nc2n1C1CCCC1 | 21.2 | > 50 | > 50
> 50 | > 50 | O=c1c2nnnn2c2cnc(Nc3ccc(N4CCCCC4)cc3)nc2n1C1CCCC1 | > 50 | > 50 | 1.16
> 50 | 2.58 | CN(C)c1ccc(Nc2ncc3c(n2)n(C2CCCC2)c(=O)c2nnnn23)cc1 | > 50 | > 50 | 10.1
3.96 | > 50 | O=c1c2nncn2c2cnc(Nc3ccc(N4CCN(C5CCCC5)CC4)cc3)nc2n1C1CCCC1 | 22.3 | > 50 | > 50
> 50 | > 50 | O=c1c2nnnn2c2cnc(Nc3ccc(N4CCCC4)cc3)nc2n1C1CCCC1 | > 50 | > 50 | 7.86
8.1 | > 50 | O=c1c2nncn2c2cnc(Nc3ccc(N4CCC(O)CC4)cc3)nc2n1C1CCCC1 | 36.1 | > 50 | 41.7
> 50 | > 50 | CCN1CCN(c2ccc(Nc3ncc4c(n3)n(C3CCCC3)c(=O)c3nnnn34)cc2)CC1 | > 50 | 16.1 | 3.57
3.85 | > 50 | O=c1c2nncn2c2cnc(Nc3ccc(N4CCCCC4)cc3)nc2n1C1CCCC1 | 20.1 | > 50 | 3.11
8.95 | > 50 | O=c1c2nnnn2c2cnc(Nc3ccc(NC4CCCC4)cc3)nc2n1C1CCCC1 | 43.2 | > 50 | > 50
> 50 | 1.91 | O=c1c2nncn2c2cnc(Nc3ccc(N4CCN(CCO)CC4)cc3)nc2n1C1CCCC1 | 9.71 | 19.1 | 9.8

Reference: ChEMBL document CHEMBL4411288, “Design, synthesis and biological evaluation of novel 7-amino-[1,2,4]triazolo[4,3-f]pteridinone, and 7-aminotetrazolo[1,5-f]pteridinone derivative as potent antitumor agents” (Eur J Med Chem, 2019)
